Assay results: patent publication US20140163023A1, “DIHYDROPYRROLO PYRIMIDINE DERIVATIVES AS MTOR INHIBITORS” (Cellzome Limited, priority 2011, published 2014)

Experiments:
PI3Kγ = biological target: T1, PI3Kγ (Homo sapiens, UniProt P48736); assay: kinobeads assay, PI3Kγ; assay type: binding; settings: 1:1 mix of Jurkat and Ramos cell lysates, read-out: Inhibition values (IC50 in μM) as determined in the kinobeads assay, PI3Kγ
T1 construct: endogenous in cells; host or cells: Jurkat (ATCC TIB-152, clone E6-1) and Ramos (ATCC CRL-1596), 1:1 lysate mix
T1 sequence (P48736 whole entry): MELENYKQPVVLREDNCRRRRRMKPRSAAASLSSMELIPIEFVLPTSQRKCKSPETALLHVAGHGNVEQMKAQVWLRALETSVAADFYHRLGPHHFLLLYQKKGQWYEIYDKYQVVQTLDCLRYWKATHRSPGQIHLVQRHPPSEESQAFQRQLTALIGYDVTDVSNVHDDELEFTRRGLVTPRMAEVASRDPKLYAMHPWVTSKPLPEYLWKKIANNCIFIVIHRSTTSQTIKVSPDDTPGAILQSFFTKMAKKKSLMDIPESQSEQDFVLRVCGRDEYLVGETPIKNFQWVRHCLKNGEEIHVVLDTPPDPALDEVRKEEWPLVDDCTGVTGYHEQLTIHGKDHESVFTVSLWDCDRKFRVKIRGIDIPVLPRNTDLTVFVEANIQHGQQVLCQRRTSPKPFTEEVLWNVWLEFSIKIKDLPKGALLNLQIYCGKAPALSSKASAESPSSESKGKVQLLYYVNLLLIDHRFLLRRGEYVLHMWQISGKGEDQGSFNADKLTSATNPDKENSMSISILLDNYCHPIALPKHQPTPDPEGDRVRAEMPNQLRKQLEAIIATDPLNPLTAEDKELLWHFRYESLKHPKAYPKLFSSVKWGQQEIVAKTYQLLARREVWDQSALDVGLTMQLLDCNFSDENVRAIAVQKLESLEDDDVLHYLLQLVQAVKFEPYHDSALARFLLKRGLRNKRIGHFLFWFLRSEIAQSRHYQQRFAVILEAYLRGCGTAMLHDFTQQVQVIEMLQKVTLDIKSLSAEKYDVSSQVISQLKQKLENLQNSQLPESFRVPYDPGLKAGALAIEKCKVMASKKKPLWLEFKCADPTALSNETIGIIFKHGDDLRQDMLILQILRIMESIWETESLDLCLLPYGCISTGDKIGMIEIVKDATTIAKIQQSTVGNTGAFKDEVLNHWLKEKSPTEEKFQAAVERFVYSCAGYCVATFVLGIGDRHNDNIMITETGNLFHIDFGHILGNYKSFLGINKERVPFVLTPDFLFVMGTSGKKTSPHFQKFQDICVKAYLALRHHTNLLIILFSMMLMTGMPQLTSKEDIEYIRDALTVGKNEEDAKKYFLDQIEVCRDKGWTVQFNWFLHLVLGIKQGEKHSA
Experimental: (§1) The compounds of the present invention as described were tested in the mTOR kinobeads assay as described below. Briefly, test compounds (at various concentrations) and the affinity matrix (1:1 mixture of beads with immobilized phenylthiazole ligand 1 and beads with immobilized phenylmorpholin-chromen ligand; WO 2009/098021) were added to cell lysate aliquots and allowed to bind to the proteins in the lysate sample. After the incubation time the beads with captured proteins were separated from the lysate. Bound proteins were then eluted and the presence of mTOR, PI3Kα, PI3Kβ, PI3Kγ, PI3Kδ and DNA-dependent protein kinase (DNA-PK) was detected and quantified using a specific antibody in a dot blot procedure and the Odyssey infrared detection system. Dose response curves for individual kinases were generated and IC50 values calculated. Kinobeads assays for PI3 kinases (WO-A 2008/015013) and for kinase selectivity profiling (WO 2009/098021) have been previously described.
(§2) Washing of Affinity Matrix
(§3) The affinity matrix was washed two times with 15 ml of 1×DP buffer containing 0.2% NP40 (IGEPAL® CA-630, Sigma, #13021) and then resupended in 5.5 ml of 1×DP buffer containing 0.2% NP40 (10% beads slurry).
(§4) 5×DP buffer: 250 mM Tris-HCl pH 7.4, 25% Glycerol, 7.5 mM MgCl2, 750 mM NaCl, 5 mM Na3VO4, filter the 5×-lysis buffer through 0.22 μm filter and store in aliquots at −80° C. The 5×DP buffer is diluted to 1×DP buffer containing 1 mM DTT and 25 mM NaF.
(§5) Preparation of Test Compounds
(§6) Stock solutions of test compounds were prepared in DMSO. In a 96 well plate 30 μl solution of diluted test compounds at 5 mM in DMSO were prepared. Starting with this solution a 1:3 dilution series (9 steps) was prepared. For control experiments (no test compound) a buffer containing 2% DMSO was used. Compound Pi-103 (Calbiochem catalogue number 528100) served as a positive control.
(§7) Cell Culture and Preparation of Cell Lysates
(§8) Jurkat cells (ATCC catalogue number TIB-152 Jurkat, clone E6-1) and Ramos cells (ATCC number CRL-1596) were grown in 1 litre Spinner flasks (Integra Biosciences, #182101) in suspension in RPMI 1640 medium (Invitrogen, #21875-034) supplemented with 10% Fetal Bovine Serum (Invitrogen) at a density between 0.15×10^6 and 1.2×10^6 cells/ml. Cells were harvested by centrifugation, washed once with 1×PBS buffer (Invitrogen, #14190-094) and cell pellets were frozen in liquid nitrogen and subsequently stored at −80° C.
(§9) Cells were homogenized in a Potter S homogenizer in lysis buffer: 50 mM Tris-HCl, 0.8% NP40, 5% glycerol, 150 mM NaCl, 1.5 mM MgCl2, 25 mM NaF, 1 mM sodium vanadate, 1 mM DTT, pH 7.5. One complete EDTA-free tablet (protease inhibitor cocktail, Roche Diagnostics, 1873580) per 25 ml buffer was added. The material was dounced 10 times using a mechanized POTTER S, transferred to 50 ml falcon tubes, incubated for 30 minutes on ice and spun down for 10 min at 20,000 g at 4° C. (10,000 rpm in Sorvall SLA600, precooled). The supernatant was transferred to an ultracentrifuge (UZ)-polycarbonate tube (Beckmann, 355654) and spun for 1 hour at 100.000 g at 4° C. (33.500 rpm in Ti50.2, precooled). The supernatant was transferred again to a fresh 50 ml falcon tube, the protein concentration was determined by a Bradford assay (BioRad) and samples containing 50 mg of protein per aliquot were prepared. The samples were immediately used for experiments or frozen in liquid nitrogen and stored frozen at −80° C.
(§10) Cell lysate (approximately 50 mg protein per plate) was thawed in a water bath at room temperature and then kept on ice. To the thawed cell lysate 1×DP 0.8% NP40 buffer containing protease inhibitors (1 tablet for 25 ml buffer; EDTA-free protease inhibitor cocktail; Roche Diagnostics 1873580) was added in order to reach a final protein concentration of 5 mg/ml total protein. For the kinobeads experiment a 1:1 mix of Jurkat and Ramos cell lysates was used. The diluted cell lysate was stored on ice. […]

[1] = biological target: T2, DNA-dependent protein kinase (DNA-PK) (Homo sapiens, UniProt P78527); assay: kinobeads assay, DNA-PK; assay type: binding; settings: 1:1 mix of Jurkat and Ramos cell lysates, read-out: Inhibition values (IC50 in μM) as determined in the kinobeads assay, DNA-PK
T2 construct: endogenous in cells; host or cells: Jurkat (ATCC TIB-152, clone E6-1) and Ramos (ATCC CRL-1596), 1:1 lysate mix
Experimental: as §1, §2, §3, §4, §5, §6, §7, §8, §9, §10

PI3Kβ = biological target: T3, PI3Kβ (Homo sapiens, UniProt P42338); assay: kinobeads assay, PI3Kβ; assay type: binding; settings: 1:1 mix of Jurkat and Ramos cell lysates, read-out: Inhibition values (IC50 in μM) as determined in the kinobeads assay, PI3Kβ
T3 construct: endogenous in cells; host or cells: Jurkat (ATCC TIB-152, clone E6-1) and Ramos (ATCC CRL-1596), 1:1 lysate mix
T3 sequence (P42338 whole entry): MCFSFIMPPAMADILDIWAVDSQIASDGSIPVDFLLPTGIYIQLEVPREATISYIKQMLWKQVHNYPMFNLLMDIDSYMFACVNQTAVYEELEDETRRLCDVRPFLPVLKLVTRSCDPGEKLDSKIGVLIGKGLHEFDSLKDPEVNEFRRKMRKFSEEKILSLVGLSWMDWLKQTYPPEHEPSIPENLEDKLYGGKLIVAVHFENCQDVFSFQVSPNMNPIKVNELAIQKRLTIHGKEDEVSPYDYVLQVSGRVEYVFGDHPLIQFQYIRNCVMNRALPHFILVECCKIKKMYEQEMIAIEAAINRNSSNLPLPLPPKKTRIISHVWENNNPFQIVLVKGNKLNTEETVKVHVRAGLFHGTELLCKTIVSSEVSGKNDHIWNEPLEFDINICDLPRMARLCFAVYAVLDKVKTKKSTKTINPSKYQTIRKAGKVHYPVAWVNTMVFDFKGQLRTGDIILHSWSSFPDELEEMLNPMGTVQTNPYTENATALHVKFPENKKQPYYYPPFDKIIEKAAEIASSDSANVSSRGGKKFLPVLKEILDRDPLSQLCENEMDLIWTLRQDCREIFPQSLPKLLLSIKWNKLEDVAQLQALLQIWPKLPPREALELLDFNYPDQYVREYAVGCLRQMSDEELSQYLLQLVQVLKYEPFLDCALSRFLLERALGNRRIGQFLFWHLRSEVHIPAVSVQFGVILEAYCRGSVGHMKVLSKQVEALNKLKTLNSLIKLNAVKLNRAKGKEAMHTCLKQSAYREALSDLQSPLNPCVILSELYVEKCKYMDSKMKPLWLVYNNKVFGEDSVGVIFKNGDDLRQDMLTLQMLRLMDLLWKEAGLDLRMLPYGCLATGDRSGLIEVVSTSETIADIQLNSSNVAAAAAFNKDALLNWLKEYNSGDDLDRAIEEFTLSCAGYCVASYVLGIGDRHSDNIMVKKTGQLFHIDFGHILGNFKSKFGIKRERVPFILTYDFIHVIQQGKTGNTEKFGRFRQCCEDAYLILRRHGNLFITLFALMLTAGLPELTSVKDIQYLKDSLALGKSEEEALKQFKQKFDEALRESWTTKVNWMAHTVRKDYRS
T3 sequence (P27986 whole entry partner): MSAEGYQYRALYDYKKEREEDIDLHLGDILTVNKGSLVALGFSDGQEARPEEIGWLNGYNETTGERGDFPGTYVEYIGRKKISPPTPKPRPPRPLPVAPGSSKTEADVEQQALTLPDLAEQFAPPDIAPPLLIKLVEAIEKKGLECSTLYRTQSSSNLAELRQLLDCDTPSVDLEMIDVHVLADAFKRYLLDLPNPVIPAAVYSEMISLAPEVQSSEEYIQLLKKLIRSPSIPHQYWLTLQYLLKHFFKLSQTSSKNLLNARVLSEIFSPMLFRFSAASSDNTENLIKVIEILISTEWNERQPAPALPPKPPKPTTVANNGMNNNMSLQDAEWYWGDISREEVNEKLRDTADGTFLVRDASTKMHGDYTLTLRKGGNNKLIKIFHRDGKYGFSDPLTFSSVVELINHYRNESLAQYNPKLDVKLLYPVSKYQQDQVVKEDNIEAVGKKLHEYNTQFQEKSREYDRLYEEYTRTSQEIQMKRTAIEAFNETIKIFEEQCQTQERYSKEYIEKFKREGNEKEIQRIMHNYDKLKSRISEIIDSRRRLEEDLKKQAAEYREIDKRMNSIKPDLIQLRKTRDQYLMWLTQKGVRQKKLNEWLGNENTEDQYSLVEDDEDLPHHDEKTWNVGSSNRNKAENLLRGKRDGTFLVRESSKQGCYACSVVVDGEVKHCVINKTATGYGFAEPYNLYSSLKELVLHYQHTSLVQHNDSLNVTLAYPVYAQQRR
Experimental: as §1, §2, §3, §4, §5, §6, §7, §8, §9, §10

mTOR = biological target: T4, mTOR (Homo sapiens, UniProt P42345); assay: mTOR kinobeads assay (competition binding in cell lysate, dot blot detection); settings: 1:1 mix of Jurkat and Ramos cell lysates, read-out: Inhibition values (IC50 in μM) as determined in the kinobeads assay, mTor
T4 construct: endogenous in cells; host or cells: Jurkat (ATCC TIB-152, clone E6-1) and Ramos (ATCC CRL-1596), 1:1 lysate mix
Experimental: Determination of the Effect of the Compounds According to the Invention on mTOR
as §1, §2, §3, §4, §5, §6, §7, §8, §9
as §10, with “used.” for “used. The diluted cell lysate was stored on ice.”

PI3Kα = biological target: T5, PI3Kα (Homo sapiens, UniProt P42336); assay: kinobeads assay, PI3Kα; assay type: binding; settings: 1:1 mix of Jurkat and Ramos cell lysates, read-out: Inhibition values (IC50 in μM) as determined in the kinobeads assay, PI3Kα
T5 construct: endogenous in cells; host or cells: Jurkat (ATCC TIB-152, clone E6-1) and Ramos (ATCC CRL-1596), 1:1 lysate mix
T5 sequence (P42336 whole entry): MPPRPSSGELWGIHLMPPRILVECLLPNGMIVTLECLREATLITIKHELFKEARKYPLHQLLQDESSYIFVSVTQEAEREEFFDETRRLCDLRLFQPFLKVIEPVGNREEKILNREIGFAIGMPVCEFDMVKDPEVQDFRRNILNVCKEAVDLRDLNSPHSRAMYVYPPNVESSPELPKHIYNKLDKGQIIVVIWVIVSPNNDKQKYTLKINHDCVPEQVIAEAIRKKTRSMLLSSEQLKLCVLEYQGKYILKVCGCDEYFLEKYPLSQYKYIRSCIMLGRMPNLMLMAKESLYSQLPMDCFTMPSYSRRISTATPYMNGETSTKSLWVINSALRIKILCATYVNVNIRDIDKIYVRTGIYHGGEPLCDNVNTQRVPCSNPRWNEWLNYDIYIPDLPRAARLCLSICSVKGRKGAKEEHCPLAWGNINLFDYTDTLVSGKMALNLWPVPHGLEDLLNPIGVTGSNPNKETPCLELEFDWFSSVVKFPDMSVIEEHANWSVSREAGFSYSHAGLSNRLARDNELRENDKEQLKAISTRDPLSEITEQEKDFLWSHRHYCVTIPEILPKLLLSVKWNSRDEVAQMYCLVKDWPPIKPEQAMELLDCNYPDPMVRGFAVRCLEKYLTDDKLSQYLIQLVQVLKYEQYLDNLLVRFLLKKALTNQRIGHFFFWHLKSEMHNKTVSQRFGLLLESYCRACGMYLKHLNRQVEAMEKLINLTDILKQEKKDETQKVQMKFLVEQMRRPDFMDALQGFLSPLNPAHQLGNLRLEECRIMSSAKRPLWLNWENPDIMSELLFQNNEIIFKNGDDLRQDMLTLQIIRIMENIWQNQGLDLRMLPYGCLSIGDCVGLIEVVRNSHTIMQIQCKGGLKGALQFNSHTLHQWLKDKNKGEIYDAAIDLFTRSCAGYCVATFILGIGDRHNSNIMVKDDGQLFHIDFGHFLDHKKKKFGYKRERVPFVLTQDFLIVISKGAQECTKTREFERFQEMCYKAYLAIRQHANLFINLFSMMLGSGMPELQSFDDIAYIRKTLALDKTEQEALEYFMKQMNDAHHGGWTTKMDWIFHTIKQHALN
T5 sequence (P27986 whole entry partner): as the sequence (P27986 whole entry partner) above
Experimental: as §1, §2, §3, §4, §5, §6, §7, §8, §9, §10

PI3Kδ = biological target: T6, PI3Kδ (Homo sapiens, UniProt O00329); assay: kinobeads assay, PI3Kδ; assay type: binding; settings: 1:1 mix of Jurkat and Ramos cell lysates, read-out: Inhibition values (IC50 in μM) as determined in the kinobeads assay, PI3Kδ
T6 construct: endogenous in cells; host or cells: Jurkat (ATCC TIB-152, clone E6-1) and Ramos (ATCC CRL-1596), 1:1 lysate mix
T6 sequence (O00329 whole entry): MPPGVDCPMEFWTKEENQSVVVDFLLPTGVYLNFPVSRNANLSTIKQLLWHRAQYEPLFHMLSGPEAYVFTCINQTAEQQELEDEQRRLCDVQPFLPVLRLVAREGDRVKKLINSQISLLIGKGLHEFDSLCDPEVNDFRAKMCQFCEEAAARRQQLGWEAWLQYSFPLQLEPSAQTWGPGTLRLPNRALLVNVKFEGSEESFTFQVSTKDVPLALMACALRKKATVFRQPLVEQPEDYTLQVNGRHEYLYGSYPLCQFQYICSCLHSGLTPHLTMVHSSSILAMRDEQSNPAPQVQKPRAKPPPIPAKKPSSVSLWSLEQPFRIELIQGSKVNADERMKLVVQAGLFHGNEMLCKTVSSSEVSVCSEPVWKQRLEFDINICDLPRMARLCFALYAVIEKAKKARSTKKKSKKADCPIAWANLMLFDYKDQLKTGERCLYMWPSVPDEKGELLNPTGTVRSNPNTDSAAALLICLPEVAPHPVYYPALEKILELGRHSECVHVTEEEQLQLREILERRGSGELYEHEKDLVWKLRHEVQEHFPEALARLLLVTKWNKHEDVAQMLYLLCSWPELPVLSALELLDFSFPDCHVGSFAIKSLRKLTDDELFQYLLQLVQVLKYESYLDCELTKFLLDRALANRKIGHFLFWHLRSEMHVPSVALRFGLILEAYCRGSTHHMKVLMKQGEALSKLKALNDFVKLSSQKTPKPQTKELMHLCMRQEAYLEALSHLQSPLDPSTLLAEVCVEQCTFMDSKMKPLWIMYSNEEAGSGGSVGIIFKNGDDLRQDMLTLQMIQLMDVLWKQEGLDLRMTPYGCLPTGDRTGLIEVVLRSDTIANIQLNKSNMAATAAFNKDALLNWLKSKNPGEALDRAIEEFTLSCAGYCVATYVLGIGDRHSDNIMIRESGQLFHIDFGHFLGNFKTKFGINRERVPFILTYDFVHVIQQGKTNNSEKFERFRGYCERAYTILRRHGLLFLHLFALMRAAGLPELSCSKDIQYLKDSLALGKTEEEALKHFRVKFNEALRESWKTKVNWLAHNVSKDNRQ
T6 sequence (P27986 whole entry partner): as the sequence (P27986 whole entry partner) above
Experimental: as §1, §2, §3, §4, §5, §6, §7, §8, §9, §10

| IC50 (PI3Kγ) [µM] | IC50 [1] [µM] | IC50 (PI3Kβ) [µM] | IC50 (mTOR) [µM] | IC50 (PI3Kα) [µM] | IC50 (PI3Kδ) [µM] | SMILES |
| --- | --- | --- | --- | --- | --- | --- |
| 10 to 100 | > 100 | 10 to 100 | 1 to 10 | 10 to 100 | 10 to 100 | C[C@H]1COCCN1c1nc2c(c(-c3ccc(NC(=O)NC4CC4)cc3)n1)CN(C(=O)CN)C2 [Example 28, (S)-1-(4-(6-(2-aminoacetyl)-2-(3-methylmorpholino)-6,7-dihydro-5H-pyrrolo[3,4-d]pyrimidin-4-yl)phenyl)-3-cyclopropylurea] |
| 10 to 100 | > 100 | 10 to 100 | 1 to 10 | 10 to 100 | 10 to 100 | C[C@H]1COCCN1c1nc2c(c(-c3ccc(NC(=O)NC4CC4)cc3)n1)CN(C(=O)CCN)C2 [Example 29, (S)-1-(4-(6-(3-aminopropanoyl)-2-(3-methylmorpholino)-6,7-dihydro-5H-pyrrolo[3,4-d]pyrimidin-4-yl)phenyl)-3-cyclopropylurea] |
| > 100 | > 100 | 10 to 100 | 1 to 10 | 10 to 100 | 10 to 100 | C[C@H]1COCCN1c1nc2c(c(-c3ccc(NC(=O)NC4CC4)cc3)n1)CN(C(=O)CCCN)C2 [Example 30, (S)-1-(4-(6-(4-aminobutanoyl)-2-(3-methylmorpholino)-6,7-dihydro-5H-pyrrolo[3,4-d]pyrimidin-4-yl)phenyl)-3-cyclopropylurea] |
| > 100 | > 100 | 10 to 100 | 0.1 to 1 | > 100 | 10 to 100 | COCCC(=O)N1Cc2nc(N3CCOC[C@@H]3C)nc(-c3ccc(NC(=O)NC4CC4)cc3)c2C1 [Example 31, (S)-1-cyclopropyl-3-(4-(6-(3-methoxypropanoyl)-2-(3-methylmorpholino)-6,7-dihydro-5H-pyrrolo[3,4-d]pyrimidin-4-yl)phenyl)urea] |
| 10 to 100 | 10 to 100 | 1 to 10 | 1 to 10 | > 100 | 10 to 100 | C[C@H]1COCCN1c1nc2c(c(-c3ccc(NC(=O)NC4CC4)cc3)n1)CN(C(=O)CCCN(C)C)C2 [Example 32, (S)-1-cyclopropyl-3-(4-(6-(4-(dimethylamino)butanoyl)-2-(3-methylmorpholino)-6,7-dihydro-5H-pyrrolo[3,4-d]pyrimidin-4-yl)phenyl)urea] |
| > 100 | > 100 | 10 to 100 | 1 to 10 | > 100 | 10 to 100 | C[C@H]1COCCN1c1nc2c(c(-c3ccc(NC(=O)NC4CC4)cc3)n1)CN(C(=O)C1CCCO1)C2 (stereo partly drawn) [Example 33, 1-cyclopropyl-3-(4-(2-((S)-3-methylmorpholino)-6-(tetrahydrofuran-2-carbonyl)-6,7-dihydro-5H-pyrrolo[3,4-d]pyrimidin-4-yl)phenyl)urea] |
| 10 to 100 | > 100 | 10 to 100 | 0.1 to 1 | 10 to 100 | 10 to 100 | CC(C)N1Cc2nc(N3CCOC[C@@H]3C)nc(-c3ccc(NC(=O)NCCO)cc3)c2C1 [Example 34, (S)-1-(2-hydroxyethyl)-3-(4-(6-isopropyl-2-(3-methylmorpholino)-6,7-dihydro-5H-pyrrolo[3,4-d]pyrimidin-4-yl)phenyl)urea 2,2,2-trifluoroacetate] |
| > 100 | > 100 | > 100 | 1 to 10 | > 100 | > 100 | C[C@H]1COCCN1c1nc2c(c(-c3ccc(NC(=O)NC4CC4)cc3)n1)CN(S(=O)(=O)C1CC1)C2 [Example 35, (S)-1-cyclopropyl-3-(4-(6-(cyclopropylsulfonyl)-2-(3-methylmorpholino)-6,7-dihydro-5H-pyrrolo[3,4-d]pyrimidin-4-yl)phenyl)urea] |
| 1 to 10 | > 100 | 10 to 100 | 0.1 to 1 | 10 to 100 | 10 to 100 | C[C@H]1COCCN1c1nc2c(c(-c3ccc(NC(=O)NCCO)cc3)n1)CN(S(C)(=O)=O)C2 [Example 36, (S)-1-(2-hydroxyethyl)-3-(4-(2-(3-methylmorpholino)-6-(methylsulfonyl)-6,7-dihydro-5H-pyrrolo[3,4-d]pyrimidin-4-yl)phenyl)urea] |
| 10 to 100 | 10 to 100 | 10 to 100 | 0.1 to 1 | 1 to 10 | 10 to 100 | CCNC(=O)N1Cc2nc(N3CCOC[C@@H]3C)nc(-c3ccc(NC(=O)NCCO)cc3)c2C1 [Example 37, (S)—N-ethyl-4-(4-(3-(2-hydroxyethyl)ureido)phenyl)-2-(3-methylmorpholino)-5H-pyrrolo[3,4-d]pyrimidine-6(7H)-carboxamide] |
| > 100 | > 100 | > 100 | 1 to 10 | > 100 | > 100 | C[C@H]1COCCN1c1nc2c(c(-c3ccc(NC(=O)NCCO)cc3)n1)CN(C1CCCCC1)C2 [Example 38, (S)-1-(4-(6-cyclohexyl-2-(3-methylmorpholino)-6,7-dihydro-5H-pyrrolo[3,4-d]pyrimidin-4-yl)phenyl)-3-(2-hydroxyethyl)urea] |
| 10 to 100 | 10 to 100 | 10 to 100 | 0.1 to 1 | 10 to 100 | 1 to 10 | CC(=O)N1Cc2nc(N3CCOC[C@@H]3C)nc(-c3ccc(NC(=O)NCCO)cc3)c2C1 [Example 39, (S)-1-(4-(6-acetyl-2-(3-methylmorpholino)-6,7-dihydro-5H-pyrrolo[3,4-d]pyrimidin-4-yl)phenyl)-3-(2-hydroxyethyl)urea] |
| > 100 | > 100 | 10 to 100 | 1 to 10 | 10 to 100 | 10 to 100 | C[C@H]1COCCN1c1nc2c(c(-c3ccc(NC(=O)NC4CC4)cc3)n1)CN(C(=O)C1CCOC1)C2 (stereo partly drawn) [Example 40, 1-cyclopropyl-3-(4-(2-((S)-3-methylmorpholino)-6-(tetrahydrofuran-3-carbonyl)-6,7-dihydro-5H-pyrrolo[3,4-d]pyrimidin-4-yl)phenyl)urea 2,2,2-trifluoroacetate] |
